Data published in the supplement of paper PMC10307832.

What was measured:
Assay in all cases: relative viability (nuclei count vs DMSO), 5 days (fraction); higher = more cells survive
Dovitinib + Decitabine = compound: CN1CCN(c2ccc3nc(-c4c(N)c5c(F)cccc5[nH]c4=O)[nH]c3c2)CC1 [Dovitinib] + Nc1ncn([C@H]2C[C@H](O)[C@@H](CO)O2)c(=O)n1 [Decitabine] (partner 2 µM)
Outline: (§1)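 Lung cancer cell lines in 1536-well plates got either a single drug or a fixed anchor-drug dose together with five library-drug doses (not always all listed) in √10 steps, by pin tool, on the day after seeding. Nuclei were counted after 5 days, and relative viability is the treated-to-vehicle ratio of nuclei counts. Values are medians of duplicate plates.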

Dovitinib + Crizotinib = compound: CN1CCN(c2ccc3nc(-c4c(N)c5c(F)cccc5[nH]c4=O)[nH]c3c2)CC1 [Dovitinib] + C[C@@H](Oc1cc(-c2cnn(C3CCNCC3)c2)cnc1N)c1c(Cl)ccc(F)c1Cl [Crizotinib] (partner 1 µM)
Outline: as §1

Dovitinib + Phenformin = compound: CN1CCN(c2ccc3nc(-c4c(N)c5c(F)cccc5[nH]c4=O)[nH]c3c2)CC1 [Dovitinib] + N=C(N)NC(=N)NCCc1ccccc1 [Phenformin] (partner 250 µM)
Outline: as §1

Dovitinib + Navitoclax = compound: CN1CCN(c2ccc3nc(-c4c(N)c5c(F)cccc5[nH]c4=O)[nH]c3c2)CC1 [Dovitinib] + CC1(C)CCC(c2ccc(Cl)cc2)=C(CN2CCN(c3ccc(C(=O)NS(=O)(=O)c4ccc(N[C@H](CCN5CCOCC5)CSc5ccccc5)c(S(=O)(=O)C(F)(F)F)c4)cc3)CC2)C1 [Navitoclax] (partner 0.5 µM)
Outline: as §1

Cell Line	relative viability (Dovitinib + Decitabine; first compound 0.02 µM)	relative viability (Dovitinib + Decitabine; first compound 0.06325 µM)	relative viability (Dovitinib + Decitabine; first compound 0.2 µM)	relative viability (Dovitinib + Decitabine; first compound 0.6325 µM)	relative viability (Dovitinib + Decitabine; first compound 2 µM)	relative viability (Dovitinib + Crizotinib; first compound 0.02 µM)	relative viability (Dovitinib + Crizotinib; first compound 0.06325 µM)	relative viability (Dovitinib + Crizotinib; first compound 0.2 µM)	relative viability (Dovitinib + Crizotinib; first compound 0.6325 µM)	relative viability (Dovitinib + Crizotinib; first compound 2 µM)	relative viability (Dovitinib + Phenformin; first compound 0.02 µM)	relative viability (Dovitinib + Phenformin; first compound 0.06325 µM)	relative viability (Dovitinib + Phenformin; first compound 0.2 µM)	relative viability (Dovitinib + Phenformin; first compound 0.6325 µM)	relative viability (Dovitinib + Phenformin; first compound 2 µM)	relative viability (Dovitinib + Navitoclax; first compound 0.02 µM)	relative viability (Dovitinib + Navitoclax; first compound 0.06325 µM)	relative viability (Dovitinib + Navitoclax; first compound 0.2 µM)	relative viability (Dovitinib + Navitoclax; first compound 0.6325 µM)	relative viability (Dovitinib + Navitoclax; first compound 2 µM)
NCI-H727	0.824	0.685	0.884	1.03	0.926	0.42	0.757	0.657	0.877	0.813	0.524	0.488	0.664	0.516	0.642	0.497	0.491	0.421	0.468	0.414
NCI-H838	0.458	0.452	0.529	0.495	0.46	0.788	0.817	0.818	0.816	0.785	0.553	0.627	0.74	0.62	0.662	1.11	1.19	1.17	1.22	1.11
NCI-H1355	0.363	0.351	0.371	0.336	0.371	1.06	1.02	1.06	1.09	1.06	0.428	0.428	0.477	0.433	0.529	0.917	0.958	1.04	0.985	1.08
NCI-H1437	0.509	0.615	0.592	0.573	0.549	0.867	0.947	0.781	0.929	0.868	0.297	0.292	0.595	0.304	0.346	1.01	1.05	1.05	1.05	1.07
NCI-H1650	0.448	0.362	0.489	0.44	0.442	0.945	1.02	1.06	1.14	1.02	0.517	0.5	0.513	0.448	0.388	1.12	1.2	1.25	1.05	1.08
NCI-H1651	0.578	0.62	0.577	0.652	0.59	0.927	0.882	0.824	0.829	0.858	0.336	0.352	0.485	0.347	0.275	1.09	1.04	1.03	1.02	1.03
NCI-H1666	0.714	0.718	0.734	0.835	0.8	0.966	1.14	1.08	0.964	1.04	0.612	0.579	0.588	0.554	0.566	0.835	0.966	0.887	0.901	1.03
NCI-H1734	0.49	0.519	0.472	0.506	0.467	0.635	0.664	0.637	0.598	0.643	0.418	0.408	0.38	0.396	0.372	0.876	0.826	0.849	0.851	0.822
NCI-H1755	0.679	0.736	0.756	0.723	0.677	0.861	0.878	0.834	0.852	0.86	0.625	0.601	0.617	0.591	0.657	1.02	1	1.02	0.992	1.05
NCI-H1792	0.539	0.6	0.468	0.502	0.505	0.998	0.977	0.997	1.04	0.971	0.384	0.264	0.482	0.357	0.322	0.671	0.637	0.62	0.751	0.588
NCI-H1915	0.26	0.258	0.246	0.251	0.284	0.854	0.886	0.838	0.922	0.841	0.361	0.38	0.365	0.358	0.379	0.797	0.749	0.767	0.752	0.801
NCI-H1944	0.388	0.374	0.455	0.454	0.434	1.02	1.13	1.05	1.08	1.18	0.216	0.198	0.244	0.202	0.217	1.01	0.995	1.02	1.08	1.1
NCI-H1975	0.372	0.409	0.4	0.424	0.382	0.898	0.934	1.02	0.937	0.95	0.427	0.415	0.411	0.409	0.423	1.07	1.01	1.09	1	1.2
NCI-H1993	0.637	0.598	0.67	0.683	0.622	0.917	0.818	0.811	1.04	0.942	0.483	0.516	0.496	0.499	0.505	1.07	0.963	0.965	1.02	0.934
NCI-H2009	0.428	0.431	0.403	0.344	0.4	0.919	1.06	1.04	1.03	1.12	0.456	0.493	0.47	0.408	0.562	1.14	1.15	1.2	1.19	1.19
NCI-H2023	0.223	0.234	0.217	0.237	0.215	0.55	0.604	0.591	0.573	0.481	0.38	0.416	0.457	0.38	0.398	0.996	1.03	1.04	0.945	0.929
